Data from patent EP0378755B1, “Heterocyclically substituted alpha-aryl acryl acid methyl esters and their use” (BASF Aktiengesellschaft, priority 1988, dated 1990).

How the values were obtained:
Type in all cases: in vivo
Plasmopara viticola = assay: Efficacy against Plasmopara viticola on potted vine leaves, protective spray; details: 0,0125 gew.%ige Spritzbrühe; vines "Müller Thurgau"; infected 8 days after spraying
Source text: Wirksamkeit gegen Plasmopara viticola
Blätter von Topfreben der Sorte "Müller Thurgau" wurden mit wäßriger Spritzbrühe, die 80 % Wirkstoff und 20 % Emulgiermittel in der Trockensubstanz enthielt, besprüht. Um die Wirkungsdauer der Wirkstoffe beurteilen zu können, wurden die Pflanzen nach dem Antrocknen des Spritzbelages 8 Tage im Gewächshaus aufgestellt. Erst dann wurden die Blätter mit einer Zoosporenaufschwemmung von Plasmopara viticola (Rebenperonospora) infiziert. Danach wurden die Reben zunächst für 48 Stunden in einer wasserdampfgesättigten Kammer bei 24°C und anschließend für 5 Tage in einem Gewächshaus mit Temperaturen zwischen 20 und 30°C aufgestellt. Nach dieser Zeit wurden die Pflanzen zur Beschleunigung des Sporangienträgerausbruches abermals für 16 Stunden in der feuchten Kammer aufgestellt. Dann erfolgte die Beurteilung des Ausmaßes des Pilzausbruches auf den Blattunterseiten.

Septoria nodorum = assay: Efficacy against Septoria nodorum on wheat plants, protective spray; details: 0,05 gew.%ige Spritzbrühe; wheat "Frühgold"; inoculated 20 h after spraying, assessed after one week
Method: Wirksamkeit gegen Septoria nodorum
Weizenpflanzen der Sorte "Frühgold" wurden im Ein-Blatt-Stadium mit wäßriger Wirkstoffaufbereitung, die 80 % Wirkstoff und 20 % Emulgiermittel in der Trockensubstanz enthielt, bis zur Tropfnässe besprüht. 20 Stunden nach dem Antrocknen des Spritzbelages wurden die Pflanzen mit einer wäßrigen Sporensuspension von Septoria nodorum bis zur Tröpfchenbildung inokuliert und für eine Woche in eine Klimakammer bei Temperaturen zwischen 17 und 19°C und einer relativen Luftfeuchtigkeit von ungefähr 90 bis 95 % gestellt. Dann wurde das Ausmaß der Symptomentwicklung ermittelt.

Pyrenophora teres = assay: Efficacy against Pyrenophora teres on barley seedlings, protective spray; details: 0,0125 gew.%ige Spritzbrühe; barley "Igri"; inoculated 24 h after spraying
Method: Wirksamkeit gegen Pyrenophora teres
Gerstenkeimlinge der Sorte "Igri" wurden im Zweiblattstadium mit wäßrigen Suspensionen, die 80 % Wirkstoff und 20 % Emulgator in der Trockensubstanz enthielten, tropfnaß gespritzt. Nach 24 Stunden wurden die Pflanzen mit einer Sporensuspension des Pilzes Pyrenophora teres inokuliert und für 48 Stunden in eine Klimakammer mit hoher Luftfeuchtigkeit bei 18°C gestellt. Anschließend wurden die Pflanzen im Gewächshaus bei 20 bis 22°C und 70 % relativer Luftfeuchtigkeit für weitere 5 Tage kultiviert. Dann wurde das Ausmaß des Befalls ermittelt.

Ornithodorus moubata = Ornithodorus moubata (tick) contact test by dipping; details: after 48 h, ca. 25°C
Source text: Ornithodorus moubata (Zecke)
(§1) Versuchsart: Kontaktwirkung
Verwendet wurden junge Zecken, die eine Blutmahlzeit hinter sich hatten (Durchmesser 1,5 bis 2 mm). Diese Tiere nahm man mit Hilfe eines Saugrohres einzeln auf, wobei eine starke Lichtquelle die aktiven Tiere aus den Häutungsresten trieb. Je 5 Zecken wurden in einem Papierbeutel für 5 Sekunden in die wäßrige Wirkstoffaufbereitung getaucht (Wirkstoffgehalt in ppm). Die Beutel hing man danach frei auf und ermittelte nach 48 Stunden die Wirkung. Dabei wurden die Beutel an eine starke Lichtquele (60 W-Birne) gehalten; die lebenden Tiere versuchten auszuweichen und waren leicht zu erkennen. Die Versuchstemperatur betrug ca. 25°C. Man bestimmte die Mortalität in %.

Tetranychus telarius = Tetranychus telarius contact test, spray test on bush beans; details: 120 h, after 5 days
Method: Tetranychus telarius, Rote Spinne, Kontaktwirkung, Spritzversuch
Buschbohnen in Töpfen, die das zweite Blattpaar zeigen, werden mit der wäßrigen Wirkstoffaufbereitung tropfnaß gespritzt. Die Pflanzen werden von allen Seiten mit insgesamt 50 ml Spritzbrühe besprüht. Die Pflanzen weisen einen starken Milbenbefall und reichliche Eiablage auf.
Die Wirkung wird nach 5 Tagen mittels Binokular ermittelt. Dabei wird darauf geachtet, ob alle Entwicklungsstadien der Tiere gleichmäßig erfaßt sind. Die Pflanzen stehen während der 5 Tage unter normalen Gewächshausbedingungen.

Plutella maculipennis = Plutella maculipennis contact test on dipped cabbage leaves; details: after 48 h, 4th instar larvae
Method: Plutella maculipennis (Kohlschabe)
as §1
Junge Kohlblätter wurden 3 sec. in die wäßrige Aufbereitung der Prüfsubstanz getaucht (Wirkstoffgehalt in ppm) und auf einen mit 0,5 ml Wasser angefeuchteten Rundfilter (Φ 9 cm) in eine Glasschale gelegt (Φ 10 cm). Darauf wurde das Blatt mit 10 Raupen im 4. Larvenstadium besetzt und die Glasschale geschlossen. Nach 48 Stunden beurteilte man die Mortalität in %.

Musca domestica = Musca domestica continuous contact test in glass dish; details: after 4 h
Method: Musca domestica (Stubenfliegen)
Versuchsart: Dauerkontakt
Beide Teile einer Glasschale von 10 cm Durchmesser wurden mit insgesamt 1 ml der acetonischen Lösung der Wirkstoffe benetzt. Wirkstoffgehalt der Lösung in ppm. Nach Verdunsten des Lösungsmittels brachte man je 10 Fliegen in die Schalen, schloß sie und zählte nach 4 Stunden die Tiere, die sich in Rückenlage befanden und bestimmte die Mortalitätsrate in %.

Prodenia litura = Prodenia litura feeding test on dipped maize pieces; details: after 24 h
Method: Prodenia litura, ägypt. Baumwollwurm
Die Versuche wurden in 250 ml Plastikbechern durchgeführt. Dabei setzte man 2 Raupen in die Gefäße und bot Stücke von Maispflanzen, die man für 5 Sekunden in die wäßrige Wirkstoffaufbereitung getaucht hatte, als Futter an. Wirkstoffgehalt in ppm. Nach 24 Stunden beurteilte man die Mortalitätsrate in %.

| SMILES | fungizide Wirkung (Plasmopara viticola) [%] | fungizide Wirkung (Septoria nodorum) [%] | fungizide Wirkung (Pyrenophora teres) [%] | other results |
| --- | --- | --- | --- | --- |
| CO/C=C(/C(=O)OC)c1ccccc1/C=C/c1cnn(-c2ccc(F)cc2)c1 [compound 98] | 95 | 95 | 95 | – |
| CO/C=C(/C(=O)OC)c1ccccc1/C=C/c1cc(C)no1 [compound 100] | 95 | – | 95 | – |
| CO/C=C(/C(=O)OC)c1ccccc1/C=C/c1cc(C(C)C)no1 [compound 41] | – | 95 | – | % Mort. (Ornithodorus moubata; 1000 ppm): 80%; mortality at 100 ppm (Tetranychus telarius): 100% |
| CO/C=C(/C(=O)OC)c1ccccc1/C=C/c1ccn(-c2ccc(Cl)cc2)c1 [Verbindung Nr. 4, Alpha-2-[2'-(N-para-Chlorphenyl-pyrrol-3''-yl)-ethen-1'-yl]-phenyl-β-methoxy-acrylsäuremethylester] | – | 95 | – | mortality at 100 ppm (Plutella maculipennis; 100 ppm): 100%; % Mort. (Ornithodorus moubata; 400 ppm): 80%; mortality at 2 ppm (Musca domestica): 100%; mortality at 40 ppm (Prodenia litura; 40 ppm): 100% |
| CO/C=C(/C(=O)OC)c1ccccc1/C=C/c1nnc(C(C)C)o1 [compound 69] | – | 95 | 95 | – |
| COC=C(C(=O)OC)c1ccccc1C=Cc1ccc(Cl)cc1 [A, 2-(β-Methoxy-α-methoxycarbonylvinyl)-4'-chlor-stilben] | – | – | – | mortality at 1000 ppm (Plutella maculipennis): 0%; % Mort. (Ornithodorus moubata; 1000 ppm): 0%; mortality at 2 ppm (Musca domestica): 0%; mortality at 1000 ppm (Prodenia litura): 0% |
| CO/C=C(/C(=O)OC)c1ccccc1/C=C/c1cc(-c2ccccc2)no1 [compound 101] | 95 | – | – | % Mort. (Ornithodorus moubata; 1000 ppm): 60%; mortality at 100 ppm (Tetranychus telarius): 100% |
| CO/C=C(/C(=O)OC)c1ccccc1/C=C/c1nc(-c2ccc(Cl)cc2)no1 [compound 84] | – | 95 | 95 | – |
| COC=C(C(=O)OC)c1ccccc1C=Cc1cc(C2CC2)no1 [Verbindung Nr. 42, Alpha-2-[2′-(3˝-Cyclopropyl-isoxazol-5˝-yl)-ethen-1′-yl]-phenyl-β-methoxy-acrylsäuremethylester] | 95 | – | – | – |
| CO/C=C(/C(=O)OC)c1ccccc1/C=C/c1cc(-c2ccc(C)cc2)no1 [compound 45] | 95 | – | 95 | % Mort. (Ornithodorus moubata; 1000 ppm): 60%; mortality at 40 ppm (Tetranychus telarius; 40 ppm): 80% |
| CO/C=C(/C(=O)OC)c1ccccc1/C=C/c1cnn(-c2ccc(C)cc2)c1 [compound 30] | 95 | 95 | 95 | – |
| COC=C(C(=O)OC)c1ccccc1Oc1nc2ccccc2o1 [B, α-[2-(Benzoxazol-2'-yl-oxy)-phenyl]-β-methoxy-acrylsäuremethylester] | – | – | – | mortality at 200 ppm (Plutella maculipennis; 200 ppm): 0%; mortality at 1000 ppm (Plutella maculipennis): 80%; % Mort. (Ornithodorus moubata; 1000 ppm): 0%; mortality at 4 ppm (Musca domestica; 4 ppm): 80%; mortality at 1000 ppm (Prodenia litura): 80%; mortality at 1000 ppm (Tetranychus telarius; 1000 ppm): 0% |
| CO/C=C(/C(=O)OC)c1ccccc1/C=C/c1cc(-c2ccc(C#N)cc2)no1 [compound 46] | 95 | – | 95 | mortality at 400 ppm (Tetranychus telarius; 400 ppm): 100% |
| CO/C=C(/C(=O)OC)c1ccccc1/C=C/c1cnn(-c2ccc(Cl)cc2)c1 [compound 31] | 95 | 95 | 95 | – |
| CO/C=C(/C(=O)OC)c1ccccc1/C=C/c1cnn(-c2ccc(Br)cc2)c1 [compound 99] | 95 | 95 | 95 | – |
| CO/C=C(/C(=O)OC)c1ccccc1/C=C/c1cc(-c2c(F)cccc2Cl)no1 [compound 102] | 95 | 95 | 95 | – |
| COC=C(C(=O)OC)c1ccccc1Oc1cncc(Cl)n1 [C, α-2-(6-Chlorpyrazin-2-oxy)-phenyl-β-methoxy-acrylsäuremethylester, reference compound] | 60 | – | 55 | – |
